In ChEMBL document CHEMBL4840382, “Novel Substituted Heteroaryl Compounds for Treating Huntington's Disease” (ACS Med Chem Lett, 2021):

Biological target: Huntingtin (Homo sapiens, UniProt P42858)
Experiment: Inhibition of endogenous Huntingtin protein (unknown origin) incubated for overnight in presence of MW1/MAB2166 monoclonal antibody by ELISA-based MSD electrochemiluminescence assay

Chain of Huntingtin (P42858 whole entry): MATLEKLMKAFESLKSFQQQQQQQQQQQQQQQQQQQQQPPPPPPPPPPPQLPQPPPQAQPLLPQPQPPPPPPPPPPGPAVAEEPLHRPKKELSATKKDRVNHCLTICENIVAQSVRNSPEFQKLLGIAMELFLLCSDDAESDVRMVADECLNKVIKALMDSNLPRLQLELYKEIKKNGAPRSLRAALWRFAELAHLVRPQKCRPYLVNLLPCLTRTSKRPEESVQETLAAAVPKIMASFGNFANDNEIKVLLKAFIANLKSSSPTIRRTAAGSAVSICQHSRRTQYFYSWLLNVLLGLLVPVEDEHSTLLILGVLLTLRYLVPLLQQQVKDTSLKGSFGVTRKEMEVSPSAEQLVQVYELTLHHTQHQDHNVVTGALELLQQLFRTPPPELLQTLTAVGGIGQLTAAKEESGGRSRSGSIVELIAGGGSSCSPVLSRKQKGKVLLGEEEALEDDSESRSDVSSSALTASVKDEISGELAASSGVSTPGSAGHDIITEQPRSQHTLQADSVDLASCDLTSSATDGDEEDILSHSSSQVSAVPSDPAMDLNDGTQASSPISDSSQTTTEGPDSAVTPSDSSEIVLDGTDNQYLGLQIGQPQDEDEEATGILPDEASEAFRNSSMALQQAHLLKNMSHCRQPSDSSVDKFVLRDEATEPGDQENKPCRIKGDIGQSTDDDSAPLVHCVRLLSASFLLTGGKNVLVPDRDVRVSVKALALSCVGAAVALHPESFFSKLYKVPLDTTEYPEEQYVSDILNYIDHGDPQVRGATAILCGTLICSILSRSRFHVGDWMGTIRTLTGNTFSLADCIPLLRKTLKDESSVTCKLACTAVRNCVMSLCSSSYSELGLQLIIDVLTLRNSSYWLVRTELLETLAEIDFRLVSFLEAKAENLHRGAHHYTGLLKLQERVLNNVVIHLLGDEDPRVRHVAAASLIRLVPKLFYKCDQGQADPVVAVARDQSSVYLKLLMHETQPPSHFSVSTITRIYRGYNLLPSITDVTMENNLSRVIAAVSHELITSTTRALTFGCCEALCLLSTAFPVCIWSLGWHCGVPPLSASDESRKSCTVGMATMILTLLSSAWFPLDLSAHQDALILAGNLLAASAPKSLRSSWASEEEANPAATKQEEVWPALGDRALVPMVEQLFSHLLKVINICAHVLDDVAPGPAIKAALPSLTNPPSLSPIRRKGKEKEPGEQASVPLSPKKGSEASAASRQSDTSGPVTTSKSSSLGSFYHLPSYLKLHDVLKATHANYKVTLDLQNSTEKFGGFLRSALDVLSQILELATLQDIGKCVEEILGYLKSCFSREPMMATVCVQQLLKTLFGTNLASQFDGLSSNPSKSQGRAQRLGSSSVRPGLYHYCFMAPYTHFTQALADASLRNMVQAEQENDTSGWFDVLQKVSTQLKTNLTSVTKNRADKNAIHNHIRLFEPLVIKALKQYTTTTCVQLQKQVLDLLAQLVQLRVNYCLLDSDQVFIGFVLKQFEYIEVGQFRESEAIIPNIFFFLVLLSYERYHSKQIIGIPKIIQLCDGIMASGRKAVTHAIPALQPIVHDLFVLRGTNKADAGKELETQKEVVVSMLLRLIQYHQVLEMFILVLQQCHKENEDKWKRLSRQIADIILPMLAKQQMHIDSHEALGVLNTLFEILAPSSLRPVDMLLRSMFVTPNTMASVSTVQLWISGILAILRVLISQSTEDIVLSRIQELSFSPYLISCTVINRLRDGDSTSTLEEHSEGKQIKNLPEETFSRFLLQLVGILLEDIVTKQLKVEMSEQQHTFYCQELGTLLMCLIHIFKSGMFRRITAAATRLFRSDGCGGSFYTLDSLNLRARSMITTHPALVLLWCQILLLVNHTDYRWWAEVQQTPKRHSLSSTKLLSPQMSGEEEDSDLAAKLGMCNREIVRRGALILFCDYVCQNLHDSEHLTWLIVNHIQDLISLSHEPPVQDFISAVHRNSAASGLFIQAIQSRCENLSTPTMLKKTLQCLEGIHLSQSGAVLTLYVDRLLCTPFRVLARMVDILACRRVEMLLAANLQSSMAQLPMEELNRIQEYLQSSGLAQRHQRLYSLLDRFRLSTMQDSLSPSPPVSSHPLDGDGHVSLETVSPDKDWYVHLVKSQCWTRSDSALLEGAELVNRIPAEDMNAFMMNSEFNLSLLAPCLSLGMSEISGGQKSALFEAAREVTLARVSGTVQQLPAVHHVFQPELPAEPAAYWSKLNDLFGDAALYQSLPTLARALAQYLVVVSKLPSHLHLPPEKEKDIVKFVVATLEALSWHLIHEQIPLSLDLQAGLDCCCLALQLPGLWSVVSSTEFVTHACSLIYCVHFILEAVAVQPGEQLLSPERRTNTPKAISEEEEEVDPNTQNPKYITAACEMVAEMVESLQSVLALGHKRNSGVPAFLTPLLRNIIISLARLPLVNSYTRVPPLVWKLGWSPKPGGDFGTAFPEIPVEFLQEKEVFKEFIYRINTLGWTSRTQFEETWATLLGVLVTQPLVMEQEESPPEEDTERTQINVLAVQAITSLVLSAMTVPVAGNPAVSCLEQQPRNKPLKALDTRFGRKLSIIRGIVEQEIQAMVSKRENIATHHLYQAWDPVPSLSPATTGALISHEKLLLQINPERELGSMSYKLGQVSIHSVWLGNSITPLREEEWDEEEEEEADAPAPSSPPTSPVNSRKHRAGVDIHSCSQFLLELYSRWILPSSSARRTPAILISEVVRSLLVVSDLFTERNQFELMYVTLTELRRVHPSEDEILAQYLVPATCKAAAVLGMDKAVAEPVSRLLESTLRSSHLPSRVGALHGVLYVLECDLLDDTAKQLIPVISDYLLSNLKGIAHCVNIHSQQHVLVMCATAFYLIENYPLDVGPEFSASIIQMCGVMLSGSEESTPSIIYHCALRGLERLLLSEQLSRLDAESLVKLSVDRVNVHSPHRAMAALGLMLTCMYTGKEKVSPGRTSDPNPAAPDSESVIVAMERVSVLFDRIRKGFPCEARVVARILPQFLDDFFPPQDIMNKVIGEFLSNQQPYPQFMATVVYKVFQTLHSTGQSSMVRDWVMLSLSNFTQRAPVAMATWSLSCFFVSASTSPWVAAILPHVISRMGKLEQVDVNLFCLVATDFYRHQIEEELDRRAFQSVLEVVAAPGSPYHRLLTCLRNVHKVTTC

Structure (SMILES) | IC50 [nM]
CC1CN(c2ncc(-c3ccc(-c4cc(F)c5nn(C)cc5c4)cc3O)nn2)CCN1 (stereo unspecified) | 2.1
Cn1cc2cc(-c3ccc(-c4cnc(N5CCNC(CO)C5)nn4)c(O)c3)cc(F)c2n1 (stereo unspecified) | 1.6
Cc1cn2cc(-c3ccc(-c4cnc(N5CCN[C@@H](C(C)C)C5)nn4)c(O)c3)ncc2n1 | 2.3
Oc1cc(-c2c[nH]nc2F)ccc1-c1cnc(N2CCN[C@@H](C3CC3)C2)nn1 | 2.1
CCC1CN(c2ncc(-c3ccc(-c4cc(F)c5nc(C)cn5c4)cc3O)nn2)CCN1 (stereo unspecified) | 2.2
Cn1nc2cc(-c3ccc(-c4cnc(N5CCN[C@@H](C6CC6)C5)nn4)c(O)c3)cnc2n1 | 1.7
